Source: patent publication US7795311B2, “Methods and compositions for the management of soil-borne fungal diseases” (Pittsburg State University, priority 2007, dated 2010)
Several values for one entry are separate records, joined by “and”; a condition that tells them apart may be missing. Equal entries are not always repeated.

How the values were obtained:
[1] = tested on: soil-borne fungal diseases; assay: 1999 and 2000 foliar treatment field trial: viability and mortality data; format: in vivo, soybean; conditions: 1999 foliar treatment
Description: (§1) Foliar treatments were prepared on site. R1 and R4 Foliar Carbenoxolone 1000μ/mL treatments were prepared by adding 3.785 g Carbenoxolone to 1 gallon of water and mixed until dissolved. The mixture was then sprayed directly onto foliage using specialized CO2 pressurized aerosol spray equipment set at a spray rate of 1 gallon/100 ft for four (4), twenty-five (25) foot rows and two (2) rows wide.
FIGS. 1 and 3 depict the 1999 and 2000 Foliar Treatment Viability and Mortality Data. In 1999, the Carbenoxolone concentration was varied between 125 and 1000 μg/ml diluted in one gallon of water. The treatment composition was applied to the canopy of plants at various developmental stages (V-2, R-1 and R-6). The foliar application was accomplished using the pressurized boom-spray unit attached to a tractor at reproductive stage V-2 or R-1, or by a backpack spray unit at reproductive stage R-6. The mortality and viability data were collected at developmental stage R-8, usually around week eleven (11) or twelve (12) in the plant's lifecycle. Also shown in FIGS. 1 and 3, the percent mortalities were calculated based on the number of plants that died at twelve (12) weeks of growth as compared to the total number of seeds planted per treatment. The viability percentages as shown in FIGS. 1 and 3 were calculated from the total number of seeds planted per treatment, as compared to the viability data taken at three (3) weeks of growth. The seed germination rate was greater than 99% and was determined prior to planting. […] This appears unchanged from the untreated control, which had similar percentages. […] The Carbenoxolone treatment solution having 125 μg/ml has a mortality percentage of approximately 10.4% compared to a mortality percentage of an uncontrolled of 20%.
The […] foliar treatment using Cabenoxolone also had similar results as in 1999. The mortality percentage of plants treated with a Carbenoxolone solution decreased when compared to an untreated control.

[2] = tested on: soil-borne fungal diseases; assay: 1999/2000 foliar application: mean disease rating and percent mortality; format: in vivo, soybean; conditions: dead plants / germinated plants, week 11
Excerpt: Beginning at developmental stage V1, a visual disease rating was employed to determine the overall visual health of the plant based on foliar, pod and stem disease. The foliar disease rating system was based from the Soybean Diseases Atlas by the Southern Soybean Disease Workers (W. J. Walla, ed. 1979, Texas A&M University). A 1-5 rating system was utilized, wherein 1=0%, 2=25%, 3=50%, 4=75%, 5=100% based on leaf area affected by disease symptoms.
FIG. 2 illustrates the 1999 Mean Disease Rating for Each Foliar Application, Percent Mortality and the Statistical Significance as Measured by the Student-Newman-Keuls (“SNK”) Analysis. The disease ratings as shown in FIGS. 2 and 4 are an objective number rating assigned as a percentage of a plot infected having a rating scale of 1=0%, 2=25%, 3=50%, 4=75% and 5=100%. The SNK data comprising letters which are different are statistically significant from other letter assigned data sets, which allows the single year data to show how weather influences the outcome of the treatment. […] The mortality count was taken at week eleven (11) in the 1999 and 2000 growing seasons. As previously stated, the SNK statistical analysis illustrate the statistical significance of the data, wherein means with the same letter are not statistically different. […] Even lower, 1000 μg/ml of Carbenoxolone solution a mortality rate of 22%.

[3] = tested on: Pythium, Phytophthora, Phomopsis and Rhizoctonia fungal pathogens; assay: Field trial 2003-2005: soybean pre-emergence mortality by seed/foliar treatment; format: in vivo; set-up: pre-emergence mortality, average non-emergent seeds: concentration or dose not given beside the values
Excerpt: (§2) Test plots were organized into randomized block design consisting of fifteen (15) total treatments. Treatments included either a control group, a seed treatment, foliar treatment, or a combination seed and foliar treatment. Each treatment consisted of four (4), twenty-five (25) foot rows in each test plot. The fifteen (15) treatment blocks were planted in quadruplicate for a total of sixty (60) test plots. The test plots were labeled with numerical identification markers which represent the treatment, plot, and replication number. No samples were taken from the two (2) interior rows of each plot so that they could be used for counting plant mortality and harvested for seed yields. The two (2) outside rows were used to sample plants.
(§3) Seeds were treated with stock solutions of the following treatments. Carbenoxolone disodium salt 0, 125, 250, 500 and 1000 μg/L High Grade was utilized for management of Pythium, Phytophthora, Phomopsis and Rhizoctonia fungal pathogens. Gustafson's Magnacoat® (Gustafson, LLC, Plans, Tex.) was used as a seed-coating polymer in conjunction with the other treatment and as a control treatment. For example, stock solutions were prepared in 500 mL beakers as follows: […] High Grade was prepared by adding 0.105 g of 99% pure Carbenoxolone to 65 mL deionized water and mixing using a spatula until completely dissolved, then adding 35 mL Magnacoat® and 5 mL green Pro-lzed® colorant and mixing until homogenous for a total of 105 mL.
(§4) Seeds for each row were treated separately with compounds. A 2.1 mL sample was taken from the stock solution via pipette and placed in a 200 mL glass beaker. A single row seed sample was added to the beaker and the seeds were mixed with a glass stir rod until the seeds were completely covered. The samples were then spread onto a wax sheet and allowed to dry for one (1) to two (2) hours. Each treated seed sample was placed in a labeled twenty pound (20 lb), 4×6 inch manila coin envelope.
as §1
(§5) Germination data was taken at V1 by counting the emergent plants in the two (2) inner yield rows. Plant counts were used to compare with number of seeds planted to determine pre-emergence mortality due to soil-borne early season disease pressure. At the end of the growing season at developmental stage […] when plants were mature, but before full senescence, dead plants were counted. Plant counts were used to determine mortality data for the season caused by overall disease pressure.
In the yield rows, two-hundred and forty (240) seeds were planted per row in the yield rows at the beginning of the growing season, flanked by two (2) rows (two-hundred and forty (240) seeds in each row) for plant sampling. Rows were end trimmed to final twenty-five (25) foot rows with two-hundred (200) seed per row and eight (8) seeds per foot. Mortality data was determined only from the interior yield rows. An average of these pre-emergence mortality totals, (four-hundred (400) seeds in two (2) rows) for all four (4) repetitions was taken to represent pre-emergence mortality. Pre-emergence mortality averages for each treatment with calculated standard deviations are compared in FIG. 5. Pre-emergence mortality indicates the number of plants that died before emergence. Treatments were either untreated control seed or seeds treated with the polymer in combination with Carbenoxolone. Foliar treatments indicate that the same compound used as a seed treatment was then applied as a foliar spray at a set plant development stage (R1 or R4). […]

[4] = tested on: Pythium, Phytophthora, Phomopsis and Rhizoctonia fungal pathogens; assay: Field trial 2003-2005: soybean post-emergence mortality by seed/foliar treatment; format: in vivo; set-up: concentration or dose not given beside the values
Excerpt: as §2, §3, §4, §1, §5
Post-emergence mortality was obtained by totaling the number of dead plants at the end of the growing season as compared to the number of plants that successfully emerged. Plant mortality counts were taken at developmental stage R8, within the two (2) yield rows and an average of these mortality totals was obtained for all four (4) repetitions. Post-emergence mortality averages and standard deviations for all four (4) repetitions and treatments over three (3) years of testing are compared in FIG. 6. Post-emergence mortality indicates the number of plants that died within the growing season after emergence. Similar to FIG. 5, treatments were either untreated control seed or seeds treated with the polymer in combination with Carbenoxolone. Foliar treatments indicate that the same compound used as a seed treatment was then applied as a foliar spray at a set plant development stage (R1 or R4). The percentage is based on the average of V1 emerged viable seedlings counted compared to the R8 viable plants counted.

[5] = tested on: Pythium, Phytophthora, Phomopsis and Rhizoctonia fungal pathogens; assay: Field trial 2003-2005: soybean viability at R8 by seed/foliar treatment; format: in vivo; set-up: viability average: concentration or dose not given beside the values
Excerpt: as §2, §3, §4, §1
The viability data was obtained by totaling the number of healthy plants within the two (2) yield rows at the end of the growing season when plants reached developmental stage R8 and these totals were averaged and standard deviations calculated for all four (4) repetitions per treatment. […] Viability averages of all treatment repetitions for a growing year, for three (3) years of field-testing are compared in FIG. 7. Viability indicates the number of healthy plants at the end of the growing season. Similar to FIGS. 5 and 6, treatments were either untreated control seed or seeds treated with the polymer in combination with Carbenoxolone. Foliar treatments indicate that the same compound used as a seed treatment was then applied as a foliar spray at a set plant development stage (R1 or R4). Percentage is based on the average number of viable plants counted at R8.

[6] = Field trial 2003-2005: seed yield; format: in vivo, soybean
Excerpt: At the end of the growing seasons, marked by plant senescence, the two (2) interior yield rows were harvested using a Massey-Ferguson two-row experimental test, combined with an onboard computer processor for determining seed weight, seed moisture and collection of samples. Yield data included seed moisture and seed weight, which were used to determine the overall yield for each test plot.
Yield data was obtained from the two (2) yield rows of twenty-five (25) feet using a conversion equation which utilized the fraction of acreage predetermined test weight and adjusted moisture of the seeds harvested. Yield values represent bushels per acre adjusted for moisture and test weight. […] Multiple comparisons were tested at α=0.1. Again as with previous Figures, treatments were either untreated control seed or seeds treated with a seed coating polymer in combination with Carbenoxolone. Foliar treatments indicate that the same compound used as a seed treatment was then applied as a foliar spray at a set plant development stage (R1 or R4).

[7] = seed combined with R1 foliar, 2003
[8] = seed combined with R1 foliar, 2004
[9] = seed combined with R1 foliar, 2005
[10] = seed combined with R4 foliar, 2003
[11] = seed combined with R4 foliar, 2004
[12] = seed combined with R4 foliar, 2005
[13] = seed treatment (with polymer), 2003
[14] = seed treatment (with polymer), 2004
[15] = seed treatment (with polymer), 2005
[16] = seed treatment combined with R1 foliar, three years of testing

In the case of CC1(C)[C@@H](OC(=O)CCC(=O)O)CC[C@]2(C)[C@H]3C(=O)C=C4[C@@H]5C[C@@](C)(C(=O)O)CC[C@]5(C)CC[C@@]4(C)[C@]3(C)CC[C@@H]12 [Carbenoxolone, 3β-hydroxy-11-oxoolean-12-en-30-oic acid 3-hemisuccinate disodium], the “increase of viability percentage from the untreated control” value ([1]; 125 μg/ml) is reported as “approximately 10%”, the mortality percentage ([1]; 125 μg/ml) is reported as “approximately 10.4%” and the mortality rate ([1]; 1000 μg/ml, plants dead at 12 weeks vs seeds planted) is reported as “approximately 20%”. For the same compound, the viability rate ([1]; 1000 μg/ml, viability at 3 weeks vs seeds planted) was “approximately 80%”, the mortality rate ([2]; foliar 500 μg/ml) was 26% and the mortality rate ([2]; foliar 1000 μg/ml) was 22%. For the same compound, the “pre-emergence mortality, average non-emergent seeds” value ([3]; R1 foliar only (untreated seed), 2003) was 27.50%, the “pre-emergence mortality, average non-emergent seeds” value ([3]; R1 foliar only (untreated seed), 2004) was 41.25% and the “pre-emergence mortality, average non-emergent seeds” value ([3]; R1 foliar only (untreated seed), 2005) was 27.08%. The “pre-emergence mortality, average non-emergent seeds” value ([3]; R4 foliar only (untreated seed), 2003) was 35.41%, the “pre-emergence mortality, average non-emergent seeds” value ([3]; R4 foliar only (untreated seed), 2004) was 43.75% and the “pre-emergence mortality, average non-emergent seeds” value ([3]; R4 foliar only (untreated seed), 2005) was 27.91%. The “pre-emergence mortality, average non-emergent seeds” value [3, 7] was 30.0%, the “pre-emergence mortality, average non-emergent seeds” value [3, 8] was 41.24% and the “pre-emergence mortality, average non-emergent seeds” value [3, 9] was 30.0%. For the same compound, the “pre-emergence mortality, average non-emergent seeds” value [3, 10] was 36.66%, the “pre-emergence mortality, average non-emergent seeds” value [3, 11] was 42.5% and the “pre-emergence mortality, average non-emergent seeds” value [3, 12] was 28.75%. For the same compound, the “pre-emergence mortality, average non-emergent seeds” value [3, 13] was 26.25% and 26%, the “average germination higher in 2003 compared to 2004” value ([3]; seed treatment (with polymer), 2003 vs 2004) was 17% and the “pre-emergence mortality, average non-emergent seeds” value [3, 14] was 43.33% and 43%. For the same compound, the “pre-emergence mortality, average non-emergent seeds” value [3, 15] was 29.16% and 29%, the post-emergence mortality average ([4]; R1 foliar only, 2003) was 5.0% and the post-emergence mortality average ([4]; R1 foliar only, 2004) was 1.6%. The post-emergence mortality average ([4]; R1 foliar only, 2005) was 3.33%, the post-emergence mortality average ([4]; R4 foliar only, 2003) was 6.25% and the post-emergence mortality average ([4]; R4 foliar only, 2004) was 1.6%. For the same compound, the post-emergence mortality average ([4]; R4 foliar only, 2005) was 3.33%, the post-emergence mortality average [4, 7] was 5.41% and 5% and the post-emergence mortality average [4, 9] was 3.33%. For the same compound, the post-emergence mortality average [4, 11] was 2.08%, the post-emergence mortality average [4, 12] was 2.5% and 2% and the post-emergence mortality average [4, 13] was 5.0%. For the same compound, the post-emergence mortality average [4, 14] was 2.08%, the post-emergence mortality average [4, 15] was 2.5% and the viability average ([5]; R1 foliar only, 2003) was 77.08%. It also gave a viability average ([5]; R1 foliar only, 2004) of 63.33%, a viability average ([5]; R1 foliar only, 2005) of 77.5% and a viability average ([5]; R4 foliar only, 2003) of 69.16%. For the same compound, the viability average ([5]; R4 foliar only, 2004) was 60.83%, the viability average ([5]; R4 foliar only, 2005) was 76.66% and the “Dunnett's t Test analysis of viability data compared to the untreated control” value ([5]; seed combined with R1 foliar) was “statistically significant difference”. For the same compound, the viability average [5, 7] was 74.58%, the viability average [5, 8] was 63.75% and the viability average [5, 9] was 74.58%. For the same compound, the viability average [5, 10] was 69.58%, the viability average [5, 11] was 62.08% and the viability average [5, 12] was 75.83%. The viability average ([5]; seed treatment (with polymer), 2003, plants at R8) was 78.39%, the viability average ([5]; seed treatment (with polymer), 2004, plants at R8) was 61.66% and the viability average ([5]; seed treatment (with polymer), 2005, plants at R8) was 75.41%. The “improvement of the average yield” value ([6]; 2003-2005, not statistically significant) was “approximately 1.5 bushels/acre”, the increase of yield [6, 16] was 1.5 bushels per acre and the “increase of yield compared to other treatments” value [6, 16] was 6.9%.
